Tests used:
individuals with obesity [1] = experiment: Example 2 multiple ascending dose study in obesity: body weight, waist circumference; format: in vivo, human
Excerpt: This study is designed to evaluate the safety, tolerability, PD and PK of dose to higher doses of Compound 1 in individuals with obesity. The Multiple Ascending Dose (MAD) study is a randomized, investigator- and participant-blind, placebo-controlled, multiple-ascending dose, single- or multi-site study conducted in individuals with obesity (i.e., females or males aged 18-70 years, inclusive, a BMI in the range of 27 kg/m^2 to 50 kg/m^2). Participants should have stable body weight for at least 3 months prior to the initiation of the study. Dose of Compound 1 is assessed with weekly dosing over 20 weeks in 2 cohorts. Each cohort comprises 12 patients-nine patients are administered Compound 1 and three patients are administered placebo. The dose for Cohort 1 is as follows: • 1.5 mg Compound 1 for 2 weeks; • 3.0 mg Compound 1 for 2 weeks; • 6.0 mg Compound 1 for 4 weeks; • 8.0 mg Compound 1 for 4 weeks; • 12.0 mg Compound 1 for 4 weeks; and • 16.0 mg Compound 1 for 4 weeks. The dose for Cohort 2 is as follows: • 2.0 mg Compound 1 for 3 weeks; • 4.0 mg Compound 1 for 3 weeks; • 6.0 mg Compound 1 for 3 weeks; • 8.0 mg Compound 1 for 3 weeks; • 10.0 mg Compound 1 for 2 weeks; • 13.0 mg Compound 1 for 2 weeks, and • 16.0 mg Compound 1 for 4 weeks. Body weight and waist circumference are measured at frequent intervals across dose from Day 1 through Day 138 and for an extended follow-up period after the conclusion of dosing. Mean absolute and percent change in body weight are calculated for Compound 1 and for placebo arms within each cohort and compared to baseline at multiple time points from Day 1 through Day 138 and throughout the extended follow-up period after the conclusion of dosing. Mean absolute and percent change in waist circumference are calculated for Compound 1 and for placebo arms within each cohort and compared to baseline at multiple time points from Day 1 through Day 138 and throughout the extended follow-up period after the conclusion of dosing. While the weight loss described in Example 1 is in a T2D patient population, greater weight loss is typical in an obesity patient population. A multiplier of 1.6-1.8 may be applied to percent weight loss moving from the T2D population to an obesity population.

individuals with obesity [2] = experiment: Example 2 study: adverse events; format: in vivo, human
Excerpt: This study is designed to evaluate the safety, tolerability, PD and PK of dose to higher doses of Compound 1 in individuals with obesity. The Multiple Ascending Dose (MAD) study is a randomized, investigator- and participant-blind, placebo-controlled, multiple-ascending dose, single- or multi-site study conducted in individuals with obesity (i.e., females or males aged 18-70 years, inclusive, a BMI in the range of 27 kg/m^2 to 50 kg/m^2). Participants should have stable body weight for at least 3 months prior to the initiation of the study.
Dose of Compound 1 is assessed with weekly dosing over 20 weeks in 2 cohorts. Each cohort comprises 12 patients-nine patients are administered Compound 1 and three patients are administered placebo.
The dose for Cohort 1 is as follows: • 1.5 mg Compound 1 for 2 weeks; • 3.0 mg Compound 1 for 2 weeks; • 6.0 mg Compound 1 for 4 weeks; • 8.0 mg Compound 1 for 4 weeks; • 12.0 mg Compound 1 for 4 weeks; and • 16.0 mg Compound 1 for 4 weeks.
The dose for Cohort 2 is as follows: • 2.0 mg Compound 1 for 3 weeks; • 4.0 mg Compound 1 for 3 weeks; • 6.0 mg Compound 1 for 3 weeks; • 8.0 mg Compound 1 for 3 weeks; • 10.0 mg Compound 1 for 2 weeks; • 13.0 mg Compound 1 for 2 weeks, and • 16.0 mg Compound 1 for 4 weeks.
Safety parameters assessed during the study include: AEs (with special interest to GI AEs such as nausea, vomiting, and diarrhea), laboratory parameters, physical examinations/medical assessments, vital signs and ECGs, BW, injection site reactions, hypersensitivity reactions, and glucose monitoring (with special attention to hypoglycemia).

For `CC(C)C[C@H](NC(=O)[C@H](CC(C)C)NC(=O)[C@H](Cc1c[nH]c2ccccc12)NC(=O)[C@H](CCC(=O)O)NC(=O)[C@@H](NC(=O)[C@H](Cc1ccccc1)NC(=O)[C@H](CCC(=O)O)NC(=O)[C@H](CCCCNC(=O)COCCOCCNC(=O)COCCOCCNC(=O)CC[C@H](NC(=O)CCCCCCCCCCCCCCCCCCC(=O)O)C(=O)O)NC(=O)[C@H](C)NC(=O)[C@H](CCCCN)NC(=O)[C@H](CCCCN)NC(=O)[C@H](CCC(=O)O)NC(=O)[C@H](CC(=O)O)NC(=O)[C@H](CC(C)C)NC(=O)[C@H](Cc1ccc(O)cc1)NC(=O)[C@H](CCCCN)NC(=O)[C@H](CO)NC(=O)[C@H](Cc1ccc(O)cc1)NC(=O)[C@H](CC(=O)O)NC(=O)[C@H](CO)NC(=O)[C@@H](NC(=O)[C@H](Cc1ccccc1)NC(=O)[C@@H](NC(=O)CNC(=O)[C@H](CCC(N)=O)NC(=O)C(C)(C)NC(=O)[C@@H](N)Cc1c[nH]cn1)[C@@H](C)O)[C@@H](C)O)C(C)C)C(=O)N[C@@H](CCC(=O)O)C(=O)NCC(=O)NCC(=O)N1CCC[C@H]1C(=O)N[C@@H](CO)C(=O)N[C@@H](CO)C(=O)NCC(N)=O` [Compound 1], the “mean waist circumference change” value (individuals with obesity [1]; Ex. 2 Cohort 1, Day 85/12 weeks (after 4 weeks of 8 mg), placebo +0.04%) was −5.2%, the “mean percent change from baseline in body weight” value (from here on “mean percent change from baseline”) (individuals with obesity [1]; Ex. 2 Cohort 1, Day 113/16 weeks, after 4 weeks of 12 mg, placebo +0.7%) was −15.4% and the “mean waist circumference change” value (individuals with obesity [1]; Ex. 2 Cohort 1, Day 113/16 weeks, after 4 weeks of 12 mg, placebo +1.3%) was −6.3%. For the same molecule, the “mean waist circumference change” value (individuals with obesity [1]; Ex. 2 Cohort 1, Day 138/20 weeks, after 4 weeks of 16 mg, placebo +0.4%) was −11.5%, the “mean waist circumference change” value (individuals with obesity [1]; Ex. 2 Cohort 2, Day 85/12 weeks (after 8 mg), placebo +0.04%) was −7.6% and the “mean percent change from baseline” value (individuals with obesity [1]; Ex. 2 Cohort 2, Day 85/12 weeks (after 8 mg), placebo +0.2%) was −11.7%. The “mean percent change from baseline” value (individuals with obesity [1]; Ex. 2 Cohort 2, Day 99/14 weeks, after 2 weeks of 10 mg, placebo +0.07%) was −13.4%, the “mean waist circumference change” value (individuals with obesity [1]; Ex. 2 Cohort 2, Day 99/14 weeks, after 2 weeks of 10 mg, placebo +1.0%) was −6.8% and the “mean percent change from baseline” value (individuals with obesity [1]; Ex. 2 Cohort 2, Day 113/16 weeks, after 2 weeks of 13 mg, placebo +0.7%) was −16.2%. The “mean waist circumference change” value (individuals with obesity [1]; Ex. 2 Cohort 2, Day 113/16 weeks, after 2 weeks of 13 mg, placebo +1.3%) was −12.6%, the “mean waist circumference change” value (individuals with obesity [1]; Ex. 2 Cohort 2, Day 138/20 weeks, after 4 weeks of 16 mg, placebo +0.4%) was −16.6% and the deaths (individuals with obesity [2]; Example 2 study) was “No deaths occurred”. The “most common treatment-emergent adverse events” value (individuals with obesity [2]; in vivo) was “gastrointestinal in nature (nausea, vomiting, diarrhea)” and the serious adverse events (individuals with obesity [2]; in vivo) was “No serious adverse events were observed”.
